Data as given in publication PMC10382584, “Macrocyclization of linear molecules by deep learning to facilitate macrocyclic drug candidates discovery” (Nature Communications, 2023).

Experiments:
Assay in all cases: biochemical
Set-up in all cases: DiscoveRx KINOMEscan competition binding, percent of DMSO control signal at 100 nM
Conditions in all cases: read-out: Fig. 4a / Percent Control / Compound 1; percent of DMSO control, competition binding
[1] = target: T1, YSK4 (Homo sapiens, UniProt Q56UN5)
T1 construct: gene MAP3K19
Description: (§1) The kinase selectivity profile was performed by using the DiscoveRx KINOMEscan platform. […] Test compounds were prepared as 40× stocks in 100% DMSO and directly diluted into the assay. The results were defined as a percentage of signal between the negative (DMSO, 100% control) and the positive (control compound, 0% control) control, which was calculated as follows: percent control = [(test compound signal − positive control signal)/(negative control signal − positive control signal)] × 100.

[2] = target: SNRK (Homo sapiens, UniProt Q9NRH2)
Description: as §1

[3] = target: T2, MLK2 (Homo sapiens, UniProt Q02779)
T2 construct: gene MAP3K10
Description: as §1

[4] = target: T3, NIM1 (Homo sapiens, UniProt Q8IY84)
T3 construct: gene NIM1K
Description: as §1

[5] = target: MKNK2 (Homo sapiens, UniProt Q9HBH9)
Description: as §1

[6] = target: PIM3 (Homo sapiens, UniProt Q86V86)
Description: as §1

[7] = target: PDGFRA (Homo sapiens, UniProt P16234)
Description: as §1

[8] = target: EGFR(L858R) (Homo sapiens, UniProt P00533, L858R)
Description: as §1

[9] = target: T4, ABL1-phosphorylated (Homo sapiens, UniProt P00519)
T4 construct: phosphorylated
Description: as §1

[10] = target: T5, YES (Homo sapiens, UniProt P07947)
T5 construct: gene YES1
Description: as §1

[11] = target: AKT1 (Homo sapiens, UniProt P31749)
Description: as §1

[12] = target: T6, ABL1(Y253F)-phosphorylated (Homo sapiens, UniProt P00519, Y253F)
T6 construct: phosphorylated
Description: as §1

[13] = target: T7, CDC2L5 (Homo sapiens, UniProt Q14004)
T7 construct: gene CDK13
Description: as §1

[14] = target: RIPK2 (Homo sapiens, UniProt O43353)
Description: as §1

[15] = target: T8, RSK1(Kin.Dom.1-N-terminal) (Homo sapiens, UniProt Q15418)
T8 construct: gene RPS6KA1; Kin.Dom.1-N-terminal
Description: as §1

[16] = target: T9, TAK1 (Homo sapiens, UniProt O43318)
T9 construct: gene MAP3K7
Description: as §1

[17] = target: T10, p38-beta (Homo sapiens, UniProt Q15759)
T10 construct: gene MAPK11
Description: as §1

[18] = target: SLK (Homo sapiens, UniProt Q9H2G2)
Description: as §1

[19] = target: ACVR1B (Homo sapiens, UniProt P36896)
Description: as §1

[20] = target: FGFR3 (Homo sapiens, UniProt P22607)
Description: as §1

[21] = target: SGK2 (Homo sapiens, UniProt Q9HBY8)
Description: as §1

[22] = target: ERBB4 (Homo sapiens, UniProt Q15303)
Description: as §1

[23] = target: LIMK2 (Homo sapiens, UniProt P53671)
Description: as §1

[24] = target: CSNK1G2 (Homo sapiens, UniProt P78368)
Description: as §1

[25] = target: T11, YANK1 (Homo sapiens, UniProt Q8WU08)
T11 construct: gene STK32A
Description: as §1
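Note: KINOMEscan kinase panel binding assay, signal normalized between DMSO as 100% and a positive control compound as 0%.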

Sequence of CSNK1G2 (P78368 whole entry): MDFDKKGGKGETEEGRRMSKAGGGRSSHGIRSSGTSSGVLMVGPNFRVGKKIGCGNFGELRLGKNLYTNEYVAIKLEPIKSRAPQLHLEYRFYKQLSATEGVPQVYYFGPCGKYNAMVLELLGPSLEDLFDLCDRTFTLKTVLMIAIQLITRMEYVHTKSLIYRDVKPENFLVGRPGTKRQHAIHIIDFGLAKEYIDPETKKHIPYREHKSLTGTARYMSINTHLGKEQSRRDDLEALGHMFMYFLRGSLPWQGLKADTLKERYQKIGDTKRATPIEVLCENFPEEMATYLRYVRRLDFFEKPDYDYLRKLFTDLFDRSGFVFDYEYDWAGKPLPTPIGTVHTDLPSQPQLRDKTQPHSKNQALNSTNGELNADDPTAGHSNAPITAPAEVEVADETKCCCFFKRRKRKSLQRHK
Sequence of ERBB4 (Q15303 whole entry): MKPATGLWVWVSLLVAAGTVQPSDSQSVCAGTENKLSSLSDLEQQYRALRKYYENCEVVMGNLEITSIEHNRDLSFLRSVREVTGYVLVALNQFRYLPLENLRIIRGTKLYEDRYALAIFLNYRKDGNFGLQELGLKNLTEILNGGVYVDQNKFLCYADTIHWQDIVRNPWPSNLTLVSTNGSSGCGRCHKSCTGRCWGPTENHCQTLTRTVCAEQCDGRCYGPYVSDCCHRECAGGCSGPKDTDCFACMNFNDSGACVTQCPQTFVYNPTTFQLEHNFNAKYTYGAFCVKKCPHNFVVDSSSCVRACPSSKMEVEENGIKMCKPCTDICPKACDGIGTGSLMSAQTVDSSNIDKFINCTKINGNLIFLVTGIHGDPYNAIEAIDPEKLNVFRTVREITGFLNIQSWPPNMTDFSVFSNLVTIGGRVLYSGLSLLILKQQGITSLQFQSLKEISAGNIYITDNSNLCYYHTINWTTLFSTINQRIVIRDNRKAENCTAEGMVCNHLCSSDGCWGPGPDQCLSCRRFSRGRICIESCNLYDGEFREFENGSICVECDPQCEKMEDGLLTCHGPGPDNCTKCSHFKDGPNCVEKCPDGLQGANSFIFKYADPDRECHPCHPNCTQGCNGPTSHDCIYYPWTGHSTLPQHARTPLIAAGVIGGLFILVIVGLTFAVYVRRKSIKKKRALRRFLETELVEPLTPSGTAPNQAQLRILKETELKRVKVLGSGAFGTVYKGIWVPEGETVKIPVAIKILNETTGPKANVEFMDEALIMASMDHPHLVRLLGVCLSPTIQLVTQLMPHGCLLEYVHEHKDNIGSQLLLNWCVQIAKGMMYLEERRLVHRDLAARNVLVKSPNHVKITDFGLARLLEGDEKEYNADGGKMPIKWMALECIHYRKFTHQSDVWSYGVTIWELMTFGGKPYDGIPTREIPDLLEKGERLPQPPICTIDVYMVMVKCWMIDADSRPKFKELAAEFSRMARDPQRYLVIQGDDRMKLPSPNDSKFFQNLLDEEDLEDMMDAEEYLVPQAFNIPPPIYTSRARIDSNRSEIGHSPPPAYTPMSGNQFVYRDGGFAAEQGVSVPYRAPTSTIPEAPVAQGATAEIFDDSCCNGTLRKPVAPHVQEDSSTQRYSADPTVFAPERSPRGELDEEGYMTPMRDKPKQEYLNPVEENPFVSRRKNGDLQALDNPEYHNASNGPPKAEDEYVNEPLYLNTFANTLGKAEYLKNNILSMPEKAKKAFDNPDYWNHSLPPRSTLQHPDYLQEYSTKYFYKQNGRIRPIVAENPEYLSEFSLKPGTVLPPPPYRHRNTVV
T7 sequence (Q14004 whole entry): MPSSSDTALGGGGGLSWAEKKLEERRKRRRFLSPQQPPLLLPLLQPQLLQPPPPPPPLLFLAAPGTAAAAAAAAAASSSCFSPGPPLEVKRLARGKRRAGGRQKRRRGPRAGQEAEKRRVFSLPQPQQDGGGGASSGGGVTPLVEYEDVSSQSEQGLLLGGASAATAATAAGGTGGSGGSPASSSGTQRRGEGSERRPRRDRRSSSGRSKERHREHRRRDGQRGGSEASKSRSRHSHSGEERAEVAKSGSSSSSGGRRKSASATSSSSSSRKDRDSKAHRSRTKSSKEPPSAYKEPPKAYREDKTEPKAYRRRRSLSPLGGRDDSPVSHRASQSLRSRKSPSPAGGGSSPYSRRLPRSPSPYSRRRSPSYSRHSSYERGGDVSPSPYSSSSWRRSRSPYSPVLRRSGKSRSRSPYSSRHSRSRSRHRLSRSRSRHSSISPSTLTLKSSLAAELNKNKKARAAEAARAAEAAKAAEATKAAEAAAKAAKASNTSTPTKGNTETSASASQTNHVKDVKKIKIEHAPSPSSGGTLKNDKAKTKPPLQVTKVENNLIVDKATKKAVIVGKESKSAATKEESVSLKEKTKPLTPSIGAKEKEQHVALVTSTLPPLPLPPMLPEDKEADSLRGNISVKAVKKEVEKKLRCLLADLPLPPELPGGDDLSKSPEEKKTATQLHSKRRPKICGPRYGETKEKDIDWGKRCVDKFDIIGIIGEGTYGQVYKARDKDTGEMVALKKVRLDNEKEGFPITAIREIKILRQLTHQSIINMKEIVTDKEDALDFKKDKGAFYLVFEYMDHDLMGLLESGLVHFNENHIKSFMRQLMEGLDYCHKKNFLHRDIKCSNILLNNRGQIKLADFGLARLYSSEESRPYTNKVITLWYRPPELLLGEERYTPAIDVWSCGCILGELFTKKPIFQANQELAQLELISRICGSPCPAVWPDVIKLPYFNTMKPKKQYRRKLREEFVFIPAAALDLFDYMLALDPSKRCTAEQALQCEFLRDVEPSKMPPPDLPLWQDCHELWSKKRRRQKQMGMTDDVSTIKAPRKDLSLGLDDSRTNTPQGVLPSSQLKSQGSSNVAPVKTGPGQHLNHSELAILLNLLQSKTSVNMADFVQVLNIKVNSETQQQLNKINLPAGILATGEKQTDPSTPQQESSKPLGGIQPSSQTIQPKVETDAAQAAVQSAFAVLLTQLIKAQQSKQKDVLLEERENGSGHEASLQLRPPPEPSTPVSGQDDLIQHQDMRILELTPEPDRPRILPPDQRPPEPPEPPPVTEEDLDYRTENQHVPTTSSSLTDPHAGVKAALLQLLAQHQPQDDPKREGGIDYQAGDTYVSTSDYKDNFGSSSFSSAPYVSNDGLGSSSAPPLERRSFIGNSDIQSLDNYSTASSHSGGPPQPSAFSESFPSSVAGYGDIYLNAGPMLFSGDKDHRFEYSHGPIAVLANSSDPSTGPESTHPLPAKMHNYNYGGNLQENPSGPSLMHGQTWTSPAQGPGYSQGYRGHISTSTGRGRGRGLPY
T11 sequence (Q8WU08 whole entry): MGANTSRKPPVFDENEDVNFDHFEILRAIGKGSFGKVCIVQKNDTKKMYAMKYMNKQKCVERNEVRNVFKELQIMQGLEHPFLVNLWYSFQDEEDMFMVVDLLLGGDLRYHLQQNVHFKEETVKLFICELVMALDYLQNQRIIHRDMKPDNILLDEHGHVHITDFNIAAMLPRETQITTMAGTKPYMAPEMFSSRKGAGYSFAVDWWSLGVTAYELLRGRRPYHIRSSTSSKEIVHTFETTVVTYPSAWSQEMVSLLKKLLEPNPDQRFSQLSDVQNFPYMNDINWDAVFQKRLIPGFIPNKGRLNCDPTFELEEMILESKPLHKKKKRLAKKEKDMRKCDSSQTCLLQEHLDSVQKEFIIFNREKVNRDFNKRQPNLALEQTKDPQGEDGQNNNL
Sequence of PDGFRA (P16234 whole entry): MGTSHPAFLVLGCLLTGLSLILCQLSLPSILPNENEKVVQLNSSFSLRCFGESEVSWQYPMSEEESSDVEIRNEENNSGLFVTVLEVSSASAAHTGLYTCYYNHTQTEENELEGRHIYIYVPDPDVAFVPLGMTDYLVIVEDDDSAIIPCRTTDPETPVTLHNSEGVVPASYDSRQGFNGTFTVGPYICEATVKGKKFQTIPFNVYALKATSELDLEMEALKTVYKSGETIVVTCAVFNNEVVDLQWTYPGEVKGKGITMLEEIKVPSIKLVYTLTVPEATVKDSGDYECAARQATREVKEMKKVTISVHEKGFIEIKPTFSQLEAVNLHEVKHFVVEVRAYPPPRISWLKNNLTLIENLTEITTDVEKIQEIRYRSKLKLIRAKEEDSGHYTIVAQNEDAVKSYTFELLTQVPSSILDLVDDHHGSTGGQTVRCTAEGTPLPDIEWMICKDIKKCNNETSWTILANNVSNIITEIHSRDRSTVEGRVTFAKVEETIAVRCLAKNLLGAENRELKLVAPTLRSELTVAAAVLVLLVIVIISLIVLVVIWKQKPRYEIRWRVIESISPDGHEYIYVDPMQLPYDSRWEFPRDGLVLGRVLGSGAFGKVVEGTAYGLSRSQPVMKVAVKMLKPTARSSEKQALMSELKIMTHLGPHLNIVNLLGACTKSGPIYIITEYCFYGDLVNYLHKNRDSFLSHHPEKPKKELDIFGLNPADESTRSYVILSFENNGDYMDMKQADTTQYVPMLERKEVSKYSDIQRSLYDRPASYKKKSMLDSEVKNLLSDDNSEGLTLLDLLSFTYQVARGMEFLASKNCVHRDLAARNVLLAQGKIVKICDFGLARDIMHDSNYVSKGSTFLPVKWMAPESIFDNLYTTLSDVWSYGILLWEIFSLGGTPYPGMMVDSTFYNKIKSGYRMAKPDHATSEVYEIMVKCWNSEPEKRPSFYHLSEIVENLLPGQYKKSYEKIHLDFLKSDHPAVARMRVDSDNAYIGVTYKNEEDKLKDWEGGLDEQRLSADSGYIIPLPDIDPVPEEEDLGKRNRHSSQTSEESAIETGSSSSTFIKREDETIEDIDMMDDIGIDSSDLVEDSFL
T10 sequence (Q15759 whole entry): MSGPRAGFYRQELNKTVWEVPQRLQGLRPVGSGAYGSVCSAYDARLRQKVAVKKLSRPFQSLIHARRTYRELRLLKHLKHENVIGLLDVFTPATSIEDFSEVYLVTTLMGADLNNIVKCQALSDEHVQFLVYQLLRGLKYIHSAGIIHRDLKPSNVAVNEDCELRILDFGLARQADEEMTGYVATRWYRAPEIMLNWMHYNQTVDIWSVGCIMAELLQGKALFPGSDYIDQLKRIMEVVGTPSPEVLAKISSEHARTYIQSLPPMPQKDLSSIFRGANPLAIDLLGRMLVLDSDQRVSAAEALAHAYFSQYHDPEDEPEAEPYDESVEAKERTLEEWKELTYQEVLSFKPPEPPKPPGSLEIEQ

In the case of `Cc1cnc2nc1Nc1cccc(c1)COCc1cc(ccc1OCCN1CCCC1)N2` [Compound 1], the remaining binding at 0.1 µM [1] was 11%, the remaining binding at 0.1 µM [2] was 78% and the remaining binding at 0.1 µM [3] was 98%. The remaining binding at 0.1 µM [4] was 99%, the remaining binding at 0.1 µM [5] was 67% and the remaining binding at 0.1 µM [6] was 100%. For the same molecule, the remaining binding at 0.1 µM [7] was 73%, the remaining binding at 0.1 µM [8] was 73% and the remaining binding at 0.1 µM [9] was 90%. The remaining binding at 0.1 µM [10] was 80%, the remaining binding at 0.1 µM [11] was 100% and the remaining binding at 0.1 µM [12] was 64%. It also gave a remaining binding at 0.1 µM [13] of 81%, a remaining binding at 0.1 µM [14] of 99% and a remaining binding at 0.1 µM [15] of 97%. For the same molecule, the remaining binding at 0.1 µM [16] was 67%, the remaining binding at 0.1 µM [17] was 86% and the remaining binding at 0.1 µM [18] was 70%. For the same molecule, the remaining binding at 0.1 µM [19] was 100%, the remaining binding at 0.1 µM [20] was 95% and the remaining binding at 0.1 µM [21] was 97%. For the same molecule, the remaining binding at 0.1 µM [22] was 82%, the remaining binding at 0.1 µM [23] was 92% and the remaining binding at 0.1 µM [24] was 99%. The remaining binding at 0.1 µM [25] was 73%.
